Data taken from publication PMC8305076, “Comprehensive Evaluation of Biological Effects of Pentathiepins on Various Human Cancer Cell Lines and Insights into Their Mode of Action” (International Journal of Molecular Sciences, 2021).
Read-outs that look alike come from different tables or passages of the source.

Key:
Test in all cases: MTT cell viability assay
Assay type in all cases: cell-based
RT-112 = conditions: Homo sapiens, 48 h
Experimental: (§1) Distinct MTT cell viability and crystal violet cell proliferation assays were performed to assess the cytotoxicity of the compounds 1–6 on 14 human cancer cell lines. In the viability assay, cells with intact mitochondria and thus active dehydrogenases are competent to convert MTT to the corresponding insoluble formazan. The formazan can be photometrically detected after solubilization and allows for indirect conclusions about the viability of the cells as an IC50 value. In the crystal violet assay, cells are stained by the binding of the dye to the chromatin, thus allowing for a quantification of biomass that remains adherent after a treatment in comparison with a control after a specific time. Potency is defined as the growth inhibitory concentration 50% (GI50).
(§2) In addition to performing the cell viability assay under normoxia (19% atmospheric oxygen), incubations were also conducted under hypoxic conditions, i.e., atmospheric oxygen levels of 1% during the treatment for 48 h. Hypoxia is a favorable condition of the tumor microenvironment that is connected with poor outcome. Therefore, the low oxygen condition mimics better the tumor environment. The biological effect of the pentathiepins under this condition provides insight into their dependency for oxygen, which has been postulated a key component in the proposed mechanism of action (Figure 3). Consistent with the proposed mechanism of action for five of the compounds, potency decreased under hypoxic conditions; in fact for 6, the half-maximal inhibitory concentration exceeded the highest tested concentration of 10 µM in four cell lines (Figure 6, Table S3). […] In contrast to the other compounds, in some cell lines, the cytotoxic effects of 1 were more pronounced under oxygen-reduced incubation conditions (Figure 6), indicating a tangential role of oxygen availability for this pentathiepin. Especially for the breast cancer cell line MCF-7, the cytotoxicity increased substantially, indicated by a decrease of the IC50 from >10.0 µM to about 1.0 µM.
(§3) The effect of the pentathiepins on the viability of the cell lines was assessed via an MTT assay, performed as previously described. Healthy and viable cells convert the yellow soluble 3-(4,5-dimethylthiazol-2-yl)-2,5-diphenyltetrazolium bromide to the insoluble purple corresponding formazan, which can be spectrophotometrically measured. For this assay, 5000 cells (1 250 for LCLC-103H) in 0.1 mL of medium were seeded per well of a 96-well plate and incubated at standard conditions for 24 h prior to treatment. A serial dilution of the test compounds was prepared in medium, covering final concentrations from 10.0 to 0.04 µM, and 0.1 mL of the working solution was added to each well in triplicate. After 48 h, 20 µL of a 2.5 mg/mL MTT in PBS solution was pipetted into each well and further incubated for 4 h at standard conditions. Thereafter, medium was replaced with 50 µL DMSO, and the plates were put on a shaker for 5 min and subsequently read at λ = 570 nm, with a SpectraMax 384plus (Molecular Devices, Sunnyvale, CA, USA). The cell viabilities of the treatment conditions were calculated in relation to a solvent control sample. The absolute IC50 was calculated via nonlinear regression followed by interpolation of the dose–response graphs in Prism 7 (GraphPad, San Diego, CA, USA). The IC90 was derived from the IC50 by using the slope factor of the dose–response graph with the tool QuickCalcs from GraphPad (GraphPad Software, San Diego, CA, USA).

DanG = conditions: Homo sapiens; for IC50: 48 h; for IC90: calculated via GraphPad QuickCalcs from MTT IC50 and slope factor
Experimental: as §1, §2, §3

PATU-8902 = conditions: Homo sapiens; for IC50: 48 h; for IC90: calculated via GraphPad QuickCalcs from MTT IC50 and slope factor
Experimental: as §1, §2, §3

YAPC = conditions: Homo sapiens; for IC50: 48 h; for IC90: calculated via GraphPad QuickCalcs from MTT IC50 and slope factor
Experimental: as §1, §2, §3

Siso = conditions: Homo sapiens; for IC50: 48 h; for IC90: calculated via GraphPad QuickCalcs from MTT IC50 and slope factor
Experimental: as §1, §2, §3

HAP-1.KO.GPx1 = conditions: Homo sapiens; for IC50: 48 h; for IC90: calculated via GraphPad QuickCalcs from MTT IC50 and slope factor
Experimental: as §1, §2, §3

A-427 = conditions: Homo sapiens, 48 h
Experimental: as §1, §2, §3

A2780 = conditions: Homo sapiens; for IC50: 48 h; for IC90: calculated via GraphPad QuickCalcs from MTT IC50 and slope factor
Experimental: as §1, §2, §3

A2780cis = conditions: Homo sapiens, 48 h
Experimental: as §1, §2, §3

Kyse-70 = conditions: Homo sapiens, 48 h
Experimental: as §1, §2, §3

LCLC-103H = conditions: Homo sapiens, 48 h
Experimental: as §1, §2, §3

HAP-1 = conditions: Homo sapiens; for IC50: HAP1, 48 h; for IC90: HAP1, calculated via GraphPad QuickCalcs from MTT IC50 and slope factor
Experimental: as §1, §2, §3

RT-4 = conditions: Homo sapiens, 48 h
Experimental: as §1, §2, §3

[1] = hypoxic (1% O2), read-out: IC50 MTT-H mean
[2] = normoxic (19% O2), read-out: IC50 MTT-N mean

Structure (SMILES) | IC50 (RT-112; [1]) [nM] | IC50 (RT-112; [2]) [nM] | IC50 (DanG; [1]) [nM] | IC50 (DanG; [2]) [nM] | IC90 (DanG) [nM] | IC50 (PATU-8902; [1]) [nM] | IC50 (PATU-8902; [2]) [nM] | IC90 (PATU-8902) [nM] | IC50 (YAPC; [1]) [nM] | IC50 (YAPC; [2]) [nM] | IC90 (YAPC) [nM] | IC50 (Siso; [1]) [nM] | IC50 (Siso; [2]) [nM] | IC90 (Siso) [nM] | IC50 (HAP-1.KO.GPx1; [1]) [nM] | IC50 (HAP-1.KO.GPx1; [2]) [nM] | IC90 (HAP-1.KO.GPx1) [nM] | IC50 (A-427; [1]) [nM] | IC50 (A-427; [2]) [nM] | IC50 (A2780; [1]) [nM] | other results
CCOc1c2c(c3cnc4[nH]c(-c5ccc(OC)cc5)cc4n13)SSSSS2 [Compound 1, 11-Ethoxy-2-(4-methoxyphenyl)-3H-[1,2,3,4,5]pentathiepino[6′,7′:3,4]pyrrolo[1,2-a]pyrrolo[2,3-e]pyrazine] | 306 | 399 | 478 | 1110 | 1710 | 543 | 579 | 1220 | 360 | 780 | 2470 | 602 | 414 | 770 | 428 | 358 | 550 | 285 | 349 | 443 | IC50 (A2780; [2]): 692 nM; IC90 (A2780): 1870 nM; IC50 (A2780cis; [1]): 411 nM; IC50 (A2780cis; [2]): 410 nM; IC50 (Kyse-70; [1]): 532 nM; IC50 (Kyse-70; [2]): 477 nM; IC50 (LCLC-103H; [1]): 552 nM; IC50 (LCLC-103H; [2]): 1420 nM; IC50 (HAP-1; [1]): 384 nM; IC50 (HAP-1; [2]): 398 nM; IC90 (HAP-1): 710 nM; IC50 (RT-4; [1]): 522 nM; IC50 (RT-4; [2]): 1930 nM
CCOc1c2c(c3ccc(C(=O)N4CCN(S(=O)(=O)c5ccc(C)cc5)CC4)cn13)SSSSS2 [Compound 6, (6-Ethoxy-[1,2,3,4,5]pentathiepino[6,7-a]indolizin-9-yl)(4-tosylpiperazinyl)methanone] | > 10000 | 3410 | > 10000 | 2180 | 4940 | > 10000 | 2980 | 7580 | 3720 | 5170 | 17900 | > 10000 | 3260 | 5070 | 1840 | 778 | 1460 | 1390 | 1790 | 2110 | IC50 (A2780; [2]): 891 nM; IC90 (A2780): 2390 nM; IC50 (A2780cis; [1]): 1720 nM; IC50 (A2780cis; [2]): 1510 nM; IC50 (Kyse-70; [1]): > 10000 nM; IC50 (Kyse-70; [2]): 1950 nM; IC50 (LCLC-103H; [1]): 2530 nM; IC50 (LCLC-103H; [2]): 2820 nM; IC50 (HAP-1; [1]): 1320 nM; IC50 (HAP-1; [2]): 722 nM; IC90 (HAP-1): 1460 nM; IC50 (RT-4; [1]): 5050 nM; IC50 (RT-4; [2]): 1550 nM
